Target: T1, KRAS G12C 1-169, his-tagged protein, GDP-loaded (Homo sapiens, UniProt P01116, G12C)
T1 construct: KRAS G12C 1-169, his-tagged protein, GDP-loaded
Test: Biochemical assay: covalent modification of KRAS G12C measured by mass spectrometry (RapidFire/TOF or Q-Exactive)
Type: binding
Protocol: Test compounds were prepared as 10 mM stock solutions in DMSO (Fisher cat. #BP-231-100). KRAS G12C 1-169, his-tagged protein, GDP-loaded is diluted to 2 μM or 0.5 μM in buffer (20 mM Hepes, 150 mM NaCl, 1 mM MgCl2). Compounds were tested for activity as follows:
Compounds were diluted to 50× final test concentration in DMSO in 96-well storage plates. Compound stock solutions were vortexed before use and observed cwerefully for any sign of precipitation. Dilutions were as follow: • For 32 μM final compound concentration, compounds were diluted to 1600 μM (3 μL 10 mM compound stock +15.75 μL DMSO and mixed well by pipetting. • For 8 μM final compound concentration, compounds were diluted to 400 μM (2 μL 10 mM compound stock +48 μL DMSO) and mixed well by pipetting. 49 μL of the stock protein solution was added to each well of a 96-well PCR plate (Fisher cat#1423027). 1 μl of the diluted 50× compounds were added to appropriate wells in the PCR plate using 12-channel pipettor. Reactions were mixed carefully and thoroughly by pipetting up/down with a 200 μL multi-channel pipettor. The plate was sealed well with aluminum plate seal, and protein and compound were allowed to react for a desired amount of time. 5 μL of 2% formic acid (Fisher cat#A117) in de-ionized H2O was then added to each well followed by mixing with a pipette to quench the reaction. The plate was then resealed with aluminum seal and stored frozen on dry ice until analyzed as described below.
The above described assays were analyzed by mass spectrometry according to one of the following two procedures:
The MS instrument was set to positive polarity, 2 GHz resolution, and low mass (1700) mode and allowed to equilibrate for 30 minutes. The instrument was then calibrated, switched to acquisition mode and the appropriate method loaded.
After another 30 minute equilibration time, a blank batch (i.e., buffer) was run to ensure equipment is operating properly. The samples were thawed at 37° C. for 10 minutes, briefly centrifuged, and transfered to the bench top. Wells A1 and H12 were spiked with 1 μL 500 μM internal standard peptide, and the plates centrifuged at 2000×g for 5 minutes. The method was then run and masses of each individual well recorded.
The masses (for which integration data is desired) for each well were pasted into the platemap and exported from the analysis. Masses for the internal standards were exported as well. The data at 50 ppm was extracted for the +19 charge state, and identity of well A1 was assigned using the internal standard spike and integrated. Peak data was exported as a TOF list and the above steps were repeated individually, for the +20, +21, +22, +23, +24, and +25 charge states.
The masses and peak intensities of KRAS G12C protein species were measured using a Dionex RSLCnano system (Thermo Scientific) connected to a Q Exactive Plus mass spectrometer (Thermo Scientific).
20 μL of sample was loaded onto a Aeris™ 3.6 μm WIDEPORE C4 200 Å, LC Column 50×2.1 mm column maintained at 40° C. at a flow rate of 600 μL/min with 80% Solvent A (0.1% formic acid in H2O) and 20% Solvent B (0.1% formic acid in acetonitrile). The liquid chromatography conditions were 20% solvent B for 1 minute, 20% to 60% solvent B for 1.5 minutes, 60% to 90% solvent for 0.5 minute, 90% solvent B for 0.2 minute, 90% to 20% solvent B for 0.2 minute, and then equilibrated for 1.6 minute before the following sample injection. The flow rate was maintained at 600 μL/min throughout the sample analysis.
The mass spectrometer was operated in profile mode at a resolution of 17500, 5 microscans, using 50 msec max injection time and an AGC target of 1×10^6, and a full mass range from 800-1850 m/z was recorded. The intact protein mode was applied for optimal ion transfer and maximum sensitivity. The ionization method was electrospray ionization, which used a spray voltage of 4 kV, sheath gas flow set to 50 AU, auxiliary gas flow set to 10 AU and sweep gas flow set to 1 AU. […]

[1] = tested at a concentration of 8 μM

SMILES | Bind % (tested at 32 μM) | Bind % [1]
C=CC(=O)N1CCC2(C1)CN(c1cc(OCc3ccccn3)cc(-c3c(C)ccc4[nH]ncc34)c1C#N)C2 [Compound I-48, 2-(6-acryloyl-2,6-diazaspiro[3.4]octan-2-yl)-6-(5-methyl-1H-indazol-4-yl)-4-(pyridin-2-ylmethoxy) benzonitrile] | + (+ indicates binding activity greater than 0% and up to 50%) | –
Cc1ccc2[nH]ncc2c1-c1cc(N2CCOCC2)cc(N2CCC3(CN(C(=O)/C=C/CN(C)C)C3)C2)c1C#N [Compound I-34, (E)-2-(2-(4-(dimethylamino)but-2-enoyl)-2,6-diazaspiro[3.4]octan-6-yl)-6-(5-methyl-1H-indazol-4-yl)-4-morpholino-benzonitrile] | – | + (+ indicates binding activity greater than 0% and up to 50%)
C=CC(=O)N1CCC2(CC1)CN(c1cccc(-c3c(C)ccc4cnn(C)c34)c1C#N)C2 [Compound I-15, 2-(7-acryloyl-2,7-diazaspiro[3.5]nonan-2-yl)-6-(1,6-dimethyl-1H-indazol-7-yl)benzonitrile] | + (+ indicates binding activity greater than 0% and up to 50%) | –
C=CC(=O)N1CC2(CCN(c3ccc(F)c(-c4c(C)ccc5[nH]ncc45)c3C#N)C2)C1 (atropisomer, axis not shown) [Compound I-43, (R)-6-(2-acryloyl-2,6-diazaspiro[3.4]octan-6-yl)-3-fluoro-2-(5-methyl-1H-indazol-4-yl)benzonitrile] | – | +++ (+++ indicates binding activity greater than 75%)
C=CC(=O)N1CC2(CCN(c3ccc(F)c(-c4c(C)ccc5[nH]ncc45)c3C#N)CC2)C1 (atropisomer, axis not shown) [Compound I-140, (R)-6-(2-acryloyl-2,7-diazaspiro[3.5]nonan-7-yl)-3-fluoro-2-(5-methyl-1H-indazol-4-yl)benzonitrile] | + (+ indicates binding activity greater than 0% and up to 50%) | –
C=CC(=O)N1CC2(CCN(c3cc(OCc4ccccn4)c(Cl)c(-c4c(C)ccc5[nH]ncc45)c3C#N)CC2)C1 [Compound I-122, 6-(2-acryloyl-2,7-diazaspiro[3.5]nonan-7-yl)-3-chloro-2-(5-methyl-1H-indazol-4-yl)-4-(pyridin-2-ylmethoxy) benzonitrile] | ++ (++ indicates binding activity from 50 to 75%) | –
C=CC(=O)N1CC2(CCN(c3ccc(F)c(-c4c(C)ccc5[nH]ncc45)c3Cl)CC2)C1 [Compound I-118, 1-(7-(2-chloro-4-fluoro-3-(5-methyl-1H-indazol-4-yl)phenyl)-2,7-diazaspiro[3.5]nonan-2-yl)prop-2-en-1-one] | + (+ indicates binding activity greater than 0% and up to 50%) | –
C=CC(=O)N1CC2(CCN(c3ccc(F)c(-c4c(C)ccc5[nH]ncc45)c3)C2)C1 [Compound I-99] | ++ (++ indicates binding activity from 50 to 75%) | –
C=CC(=O)N1CC2(CCN(c3cccc(-c4c(C)ccc5[nH]ncc45)c3C#N)C2)C1C (stereo not drawn) [Compound I-126, 2-(2-acryloyl-1-methyl-2,6-diazaspiro[3.4]octan-6-yl)-6-(5-methyl-1H-indazol-4-yl)benzonitrile] | – | + (+ indicates binding activity greater than 0% and up to 50%)
C=CC(=O)N1CC2(CCN(c3cccc(-c4c(O)cccc4F)c3C#N)C2)C1 [Compound I-17, 3-(2-acryloyl-2,6-diazaspiro[3.4]octan-6-yl)-2′-fluoro-6′-hydroxy-[1,1′-biphenyl]-2-carbonitrile] | + (+ indicates binding activity greater than 0% and up to 50%) | –
C=CC(=O)N1CC2(CCN(c3cc(N4CCCC4)c(F)c(-c4c(C)ccc5[nH]ncc45)c3C#N)CC2)C1 [Compound I-121, 6-(2-acryloyl-2,7-diazaspiro[3.5]nonan-7-yl)-3-fluoro-2-(5-methyl-1H-indazol-4-yl)-4-(pyrrolidin-1-yl)benzonitrile] | + (+ indicates binding activity greater than 0% and up to 50%) | –
C=CC(=O)N1CCC2(C1)CN(c1ccc(F)c(-c3c(C)ccc4[nH]ncc34)c1C#N)C2 [Compound I-95, 6-(6-acryloyl-2,6-diazaspiro[3.4]octan-2-yl)-3-fluoro-2-(5-methyl-1H-indazol-4-yl)benzonitrile] | + (+ indicates binding activity greater than 0% and up to 50%) | –
C=CC(=O)N1CC2(CCN(c3cccc(-c4c(C)ccc5cnn(C)c45)c3OC)C2)C1 [Compound I-5, 1-(6-(3-(1,6-dimethyl-1H-indazol-7-yl)-2-methoxyphenyl)-2,6-diazaspiro[3.4]octan-2-yl)prop-2-en-1-one] | ++ (++ indicates binding activity from 50 to 75%) | –
C=CC(=O)N1CC2(CCN(c3cccc(-c4c(C)ccc5[nH]ncc45)c3C#N)C2)C1CC (stereo not drawn) [Compound I-137, 2-(2-acryloyl-1-ethyl-2,6-diazaspiro[3.4]octan-6-yl)-6-(5-methyl-1H-indazol-4-yl)benzonitrile] | + (+ indicates binding activity greater than 0% and up to 50%) | –
C=CC(=O)N1CC2(CCN(c3cccc(-c4c(C)ccc5[nH]ncc45)c3OC)C2)C1 [Compound I-2, 1-(6-(2-methoxy-3-(5-methyl-1H-indazol-4-yl)phenyl)-2,6-diazaspiro[3.4]octan-2-yl)prop-2-en-1-one] | + (+ indicates binding activity greater than 0% and up to 50%) | –
C=CC(=O)N1CC2(CCN(c3cc(NCc4ccccn4)c(F)c(-c4c(C)ccc5[nH]ncc45)c3C#N)CC2)C1 [Compound I-117, 6-(2-acryloyl-2,7-diazaspiro[3.5]nonan-7-yl)-3-fluoro-2-(5-methyl-1H-indazol-4-yl)-4-((pyridin-2-ylmethyl)amino) benzonitrile] | ++ (++ indicates binding activity from 50 to 75%) | –
C=CC(=O)N1CC2(CCN(c3cc(N4CCOCC4)c(Cl)c(-c4c(C)ccc5[nH]ncc45)c3C#N)CC2)C1 [Compound I-124, 6-(2-acryloyl-2,7-diazaspiro[3.5]nonan-7-yl)-3-chloro-2-(5-methyl-1H-indazol-4-yl)-4-morpholino-benzonitrile] | + (+ indicates binding activity greater than 0% and up to 50%) | –
Cc1ccc2cnn(C)c2c1-c1cc(OCc2ccccn2)cc(N2CCC3(CN(C(=O)/C=C/CN(C)C)C3)C2)c1C#N [Compound I-54, (E)-2-(1,6-dimethyl-1H-indazol-7-yl)-6-(2-(4-(dimethylamino)but-2-enoyl)-2,6-diazaspiro[3.4]octan-6-yl)-4-(pyridin-2-ylmethoxy) benzonitrile] | +++ (+++ indicates binding activity greater than 75%) | –
C=CC(=O)N1CC2(CCN(c3cc(N4CCCC(O)C4)cc(-c4c(C)ccc5[nH]nc(C)c45)c3C#N)C2)C1 (stereo not drawn) [Compound I-76, 2-(2-acryloyl-2,6-diazaspiro[3.4]octan-6-yl)-6-(3,5-dimethyl-1H-indazol-4-yl)-4-(3-hydroxypiperidin-1-yl)benzonitrile] | – | ++ (++ indicates binding activity from 50 to 75%)
Cc1ccc2cnn(C)c2c1-c1cc(N2CCCC(O)C2)cc(N2CCC3(CN(C(=O)/C=C/CN(C)C)C3)C2)c1C#N (stereo not drawn) [Compound I-69, (E)-2-(1,6-dimethyl-1H-indazol-7-yl)-6-(2-(4-(dimethylamino)but-2-enoyl)-2,6-diazaspiro[3.4]octan-6-yl)-4-(3-hydroxypiperidin-1-yl)benzonitrile] | + (+ indicates binding activity greater than 0% and up to 50%) | –
C=CC(=O)N1CC2(CCN(c3cc(OCCN4CCCC4)c(F)c(-c4c(C)ccc5[nH]ncc45)c3C#N)CC2)C1 [Compound I-135, 6-(2-acryloyl-2,7-diazaspiro[3.5]nonan-7-yl)-3-fluoro-2-(5-methyl-1H-indazol-4-yl)-4-(2-(pyrrolidin-1-yl)ethoxy) benzonitrile] | + (+ indicates binding activity greater than 0% and up to 50%) | –
